{"source": "patent US8815210B2", "about": "“Diagnostic composition comprising plasma cations having superior safety profile” (GE Healthcare AS, priority 2009, dated 2014)", "key": {"[1]": {"assay": "Viscosity, calibrated U-tube technique", "assay_type": "physicochemical", "conditions": "320 mgI/ml, 20° C.", "procedure": "The viscosity of compound I was determined at 20° C. and 37° C. at three different concentrations. The viscosity at 320 mgI/ml and 20° C. is around 24 mPas.\nThe viscosity of Compound I was determined at two different temperatures, 20° C. and 37° C. and three different concentrations, 246, 295 and 313 mgI/ml. The test solutions were isotonic through adjustment of the osmolality with NaCl and had been sterilized by autoclavation. The density of the solutions was determined using a Density meter, DMA58 (Anton Paar). A calibrated U-tube technique was used, where the time of fall was used as a measure of dynamic viscosity. The viscosity of compound I was determined at 20° C. and 37° C. at three different concentrations. In comparison with Visipaque, the viscosity at 320 mgI/ml and 20° C. is similar, around 24 mPas."}, "[2]": {"assay": "Osmolality, vapour pressure osmometer", "assay_type": "physicochemical", "conditions": "320 mgI/ml", "procedure": "The osmolality of Compound I was determined at four different concentrations, 204, 254, 310 and 324 mgI/ml. The osmolality of Compound I at 320 mgI/ml is 136 mOsm/kg.\nThe osmolality of Compound I was determined at four different concentrations, 204, 254, 310 and 324 mgI/ml. A Vapro 5520 vapour pressure osmometer from Vapro Inc. was used.\nThe osmolality of Compound I at 320 mgI/ml is lower than that of iodixanol, 136 mOsm/kg vs 210 mOsm/kg at 320 mgI/ml."}, "porcine heart": {"tested_on": "porcine heart", "assay": "Intravenous and intra-arterial cardiovascular safety, acute porcine model (Example 3)", "assay_type": "in vivo, pig", "procedure": "The intravenous (i.v) and intra-arterial (i.a.) safety of a composition of Compound I was shown in a separate study (ref. B145095). In this study the cardiovascular effects of Compound I in a composition with 45 mM NaCl and 0.5 mM CaCl2 was assessed at three dose levels in vivo in an acute porcine model.\nThe composition was administered either intra-arterially or intravenously into groups of three animals at one of three dose levels (1-fold, 2-fold or 3-fold the standard volume of 2 ml/kg). Each animal also received an equivalent volume of Ringer-Lactate solution as a volume control. CV effects: heart rate (HR), pulse oximetry, electrocardiogram (ECG), aortic pressure (systolic, diastolic and mean), left ventricular end diastolic pressure (LVEDP) were assessed. Ultrasound/echocardiography to assess stroke volume, ejection fraction and cardiac contractility were also evaluated."}, "Sca:SD rats": {"tested_on": "Sca:SD rats", "conditions": "rat, in vivo", "procedure": "Young adult male Sca:SD rats (Scanbur, Sweden), weighing 200±20 g, were injected intravenously at a rate of 1.2 ml/min with either Compound I (340 mgI/mL, 286 mosmol/kg), iodixanol (321 mgI/mL, 284 mosmol/kg), osmotic control mannitol (283 mosmol/kg), or saline (290 mosmol/kg), administered as 2 separate doses 4 hours apart. For the interim kill animals (day 2 post-treatment), Compound I and iodixanol were dosed at 8, 10 and 12.8 gI/kg, corresponding to total dose volumes of 23.7, 29.7 and 38.0 ml/kg, and 25, 31.3 and 40 ml/kg, respectively, whereas for mannitol and saline, the dose volume was 40 ml/kg. For the 7 day terminal kill animals, there were 4 dose groups; Compound I and iodixanol (12.8 gI/kg), and saline and mannitol (40 mL/kg). In all cases, each group included 8 animals.\nThe following evaluations were made during the study; clinical signs, body weights and blood for haematology and clinical chemistry on days 0, 2 and 7, and gross observations, organ weight and histomorphological examination of tissues from the animals killed by excess intravenous thiopental injection on days 2 or 7. The day of dosing was defined as Day 0. Clinical biochemistry parameters (Na, K, Cl, PO4, Ca, AST, ALT, ALP, cholesterol, creatinine, CK, GGT, TG (triglyceride), total bilirubin, total protein, urea, albumin, LDH and GLDH were measured on a Beckman Synchron CX5 at 37° C. Haematology parameters (WBC, differential WBC, RBC, WBC/RBC ratio, Hgb, PLT, HCT, MCH, MCHC, MCV, MPV and RDW) were analyzed with an Abbott Cell-Dyn 3500 CS automated haematology analyzer. Kidneys from saline control and the 12.8 gI/kg Compound I and iodixanol groups were immerse fixed in 10% neutral buffered formalin, processed into paraffin wax, sectioned at a nominal thickness of 5 μm, stained with haematoxylin and eosin and examined by light microscopy.\nThe data were analysed by parametric one-way ANOVA, followed by Dunnett's post procedure test, using the 2 days and 7 days saline groups for comparison with the 2 days and 7 days iodixanol and Compound I groups. The statistical analysis was applied on day −1 (baseline), day 2 and day 7."}}, "data": [{"smiles": "O=CN(CC(O)CN(C=O)c1c(I)c(C(=O)NCC(O)CO)c(I)c(C(=O)NCC(O)CO)c1I)c1c(I)c(C(=O)NCC(O)CO)c(I)c(C(=O)NCC(O)CO)c1I", "note": "(centres unmarked) [Compound I, 5-[formyl-[3-[formyl-[3,5-bis(2,3-dihydroxypropylcarbamoyl)-2,4,6-triiodophenyl]amino]-2-hydroxypropyl]amino]-N,N′-bis(2,3-dihydroxypropyl)-2,4,6-triiodobenzene-1,3-dicarboxamide]", "values": [{"measurement": "viscosity", "setting": "[1]", "value": "around 24 mPas"}, {"measurement": "osmolality", "setting": "[2]", "value": 136, "unit": "mOsm/kg"}, {"measurement": "effect on aortic pressure (systolic, diastolic and mean)", "setting": "porcine heart; entire dose range, i.v. or i.a.", "value": "little or no effect"}, {"measurement": "QT interval", "setting": "porcine heart; i.a. or i.v. dosing", "value": "within the normal range"}, {"measurement": "myocardial performance, overall", "setting": "porcine heart; i.a. or i.v. route, up to 3-fold of 2 ml/kg", "value": "no overall changes to myocardial performance"}, {"measurement": "heart rate (HR)", "setting": "porcine heart; i.v. or i.a., 1- to 3-fold of 2 ml/kg", "value": "remained within normal ranges"}, {"measurement": "LVEDP", "setting": "porcine heart; increasing doses, i.v. or i.a.", "value": "slight increases"}, {"measurement": "end diastolic volume (EDV), echocardiography", "setting": "porcine heart; pig, in vivo", "value": "only a slight change"}, {"measurement": "rhythm disturbances (ECG)", "setting": "porcine heart; pig, in vivo", "value": "no Compound I-related rhythm disturbances"}, {"measurement": "oxygen saturation (pulse oximetry)", "setting": "porcine heart; throughout dosing, i.v. or i.a., 1- to 3-fold of 2 ml/kg, composition with 45 mM NaCl and 0.5 mM CaCl2", "value": "approximately 98%"}, {"measurement": "Proximal Tubule Vacuolation, Left Kidney", "setting": "Sca:SD rats; male, Sca:SD, 2 day", "value": "3, 3, 3, 3"}, {"measurement": "duration of clinical signs", "setting": "Sca:SD rats; male, Sca:SD, iv", "value": "2 to 3", "unit": "h"}, {"measurement": "onset of clinical signs after the first administration", "setting": "Sca:SD rats; male, Sca:SD, iv", "value": "10 to 20", "unit": "min"}, {"measurement": "adverse clinical signs", "setting": "Sca:SD rats; iv", "value": "mild to moderate depression and uncoordinated movements and weakness/inactivity"}]}]}
